Assay results taken from PMC11335189, “Revealing molecular determinants governing mambalgin-3 pharmacology at acid-sensing ion channel 1 variants” (Cellular and Molecular Life Sciences: CMLS, 2024).
Residue numbers refer to the chain shown, from its start. Positions of bridges follow the written chain, without caps; N, C: chain ends. No end group written: not given here.

Legend:
rASIC1b C208Q = biological target: T1, rASIC1b C208Q (Rattus norvegicus, UniProt P55926, C208Q); assay: TEVC oocytes, rASIC1b C208Q mutant; assay type: cell-based
T1 construct: expressed in transfected cells; host or cells: Xenopus laevis oocytes (cRNA injection)
T1 sequence (P55926 1-559 isoform P55926-3 C208Q): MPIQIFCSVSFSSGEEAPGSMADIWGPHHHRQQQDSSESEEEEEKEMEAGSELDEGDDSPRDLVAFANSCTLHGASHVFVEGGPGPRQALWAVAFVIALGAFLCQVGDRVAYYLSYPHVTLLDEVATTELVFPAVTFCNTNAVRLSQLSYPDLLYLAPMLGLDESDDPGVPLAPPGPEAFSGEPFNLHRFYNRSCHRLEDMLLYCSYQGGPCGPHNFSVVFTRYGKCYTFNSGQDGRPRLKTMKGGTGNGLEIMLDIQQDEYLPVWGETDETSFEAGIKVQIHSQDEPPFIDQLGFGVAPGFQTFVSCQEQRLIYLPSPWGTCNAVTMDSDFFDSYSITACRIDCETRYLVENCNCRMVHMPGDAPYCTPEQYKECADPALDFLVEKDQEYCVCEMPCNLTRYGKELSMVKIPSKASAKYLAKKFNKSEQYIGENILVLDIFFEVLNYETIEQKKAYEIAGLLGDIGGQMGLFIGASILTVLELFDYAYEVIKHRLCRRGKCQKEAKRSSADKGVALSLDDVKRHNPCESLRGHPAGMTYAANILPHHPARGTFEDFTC
Procedure: (§1) Two-electrode voltage-clamp (TEVC) experiments using Xenopus laevis oocytes were conducted as previously described. Briefly, oocytes were surgically removed from anaesthetised female frogs, then treated with collagenase (~ 1 mg/ml, Sigma type I) for 2 h under agitation at room temperature. cRNAs were synthesised using a mMessage mMachine T7 or SP6 transcription kit (Thermo Fisher Scientific Australia Pty Ltd, Scoresby, VIC, Australia) and injected into healthy stage V–VI oocytes at 0.2–20 ng per cell. […] Membrane currents were recorded 2–7 days after cRNA-injection under voltage-clamp at -60 mV (Axon Axoclamp 900 A, Molecular Devices, CA, USA) using two standard glass microelectrodes of 0.5–1 MΩ resistance when filled with 3 M KCl solution. […]
(§2) Specific to this work, the standard protocol was for oocytes to be conditioned at pH 7.45 and channels stimulated every 60 s using a 5 s pH 5 or 6 application, unless stated otherwise. […] Activation curves were determined by conditioning oocytes at pH 8 (Fig. 2e − g; and Fig. 5a and b) or 7.45 (Fig. 6; and Supplementary Fig. 2d and c) for 55 s and applying low pH stimuli from 7.25 to 5.0 for 5 s. Steady-state desensitisation (SSD) was determined by applying conditioning solutions of pH values from 8 to 6 for 115 s prior to stimulation by a pH drop to 5 for 5 s. […] Control pH-dependence curves were determined in the absence of any Ma-3. […]

[1] = biological target: T2, rASIC1b C208Q/N324K (CN/QK) (Rattus norvegicus, UniProt P55926, C208Q/N291K); assay: TEVC oocytes, rASIC1b double mutant CN/QK; assay type: cell-based
T2 construct: expressed in transfected cells; host or cells: Xenopus laevis oocytes injected with cRNA
T2 sequence (P55926 1-559 isoform P55926-3 C208Q/N324K): T1 sequence (P55926 1-559 isoform P55926-3 C208Q) with N324K
Procedure: as §1, §2

[2] = 300 nM Ma-3, conditioning pH 7.45, Hill fit, n = 5–6
[3] = conditioning pH 7.45, pH 6 evoked currents, potentiation, 95% CI

## H-SLKCYQHGKVVTCHRDMKFCYHNIGMPFRNLKLILQGCSSSCSETENNKCCSTDRCNK (disulfide 4-20, 13-38, 42-50, 51-56 (inferred)) [Ma-3, mambalgin-3]
rASIC1b C208Q; [2]
  pH50 of activation in presence of Ma-3: 6.27
rASIC1b C208Q; [3]
  Hill slope (95% CI): 1.26–2.01
[1]; [2]
  pH50 of activation in presence of Ma-3: 6.29
[1]; [3]
  Hill slope (95% CI): 0.69–2.48
